The values below come from paper PMC4409337, “Immucillins Impair Leishmania (L.) infantum chagasi and Leishmania (L.) amazonensis Multiplication In Vitro” (PLoS ONE, 2015).

The test system of experiment [1] is L. (L.) infantum chagasi promastigotes. The experiment is described as follows: Transmission electron microscopy of treated promastigotes. The experiment is classed as cell-based, Leishmania (L.) infantum chagasi. Particulars: 10 μM, 72 h. An excerpt:
The cells were washed with Milli Q water, dehydrated in increasing concentration of acetone and embedded in Epon (1: 1) (PolyBed 812). The ultrathin sections were obtained, contrasted with 5% uranyl acetate and lead citrate and observed under a Joel 1200 electron microscope.

The target of experiment [2] is T1, Nucleoside hydrolase NH36 (Leishmania donovani, UniProt Q8WQX2).
T1 sequence (Q8WQX2 1-314): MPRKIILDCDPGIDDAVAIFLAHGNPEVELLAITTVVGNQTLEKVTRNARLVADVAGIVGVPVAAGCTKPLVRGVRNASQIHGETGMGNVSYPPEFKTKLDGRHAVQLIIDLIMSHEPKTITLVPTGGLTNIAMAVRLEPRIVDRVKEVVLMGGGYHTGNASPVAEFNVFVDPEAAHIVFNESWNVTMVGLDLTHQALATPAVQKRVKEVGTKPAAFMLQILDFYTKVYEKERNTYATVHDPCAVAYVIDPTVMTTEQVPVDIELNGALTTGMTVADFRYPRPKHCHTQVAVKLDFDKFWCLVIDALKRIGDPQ
Briefly: Ki determination: inhibition of NH36 activity by immucillins. Format: biochemical, Leishmania (L.) donovani. The following applies: 10 mM inosine as substrate, 0.5 nM NH36, pH 7.4, room temperature. The method, then:
BL21DE3 E.coli were transformed with the synthetic plasmid pET 28b encoding the gene of NH36 of Leishmania (L.) donovani (EMBL, Genbank and DDJB data bases, access number AY007193) with a His6tag at the C-terminal. Expression was induced with 0.5 mM IPTG and overnight incubation at 20°C. Purification of NH36 was performed on a column of Ni-NTA Superflow resin (Qiagen, USA) eluted by a stepwise imidazole gradient and monitored by SDS-polyacrylamide gel electrophoresis and protein assay. The extinction coefficient of NH36 is 21.437 mM^-1 cm^-1 at 280 nm, as calculated with the ProtParam program from ExPASy, and was used to estimate protein concentration (http://ca.expasy.org/seqanalref/). The yield of NH36 after purification was 11.87 mg per Liter of bacterial growth culture. Non-specific His-proteins with weak interactions were eluted with 50–100 mM imidazole (S1 Fig). The purified NH36 started to elute with 150 mM imidazole. We used 250 mM of imidazol in elution buffer for purification of NH36.
The reaction mixtures contained 10 mM inosine as substrate, 50 mM Hepes (pH 7.4), 100 mM KCl, 5 mM DTT and 1 unit XOD. The hydrolysis of inosine to hypoxanthine and ribose was followed by continuous reading of optical absorbance at 293 nm, using variable concentrations of inhibitors in a CARY 300UV-visible spectrophotometer. Controls without enzyme and without inhibitors were included in all inhibition assays. The inhibition constant for each immucillin was obtained, using GraFit 5 (Erithacus Software), by fitting initial rates with variable inhibitor concentrations to the equation (vi/v0 = [S] / Km + [S] + Km[I] / Ki), where v i is the initial rate in the presence of the inhibitor, v 0 is the initial rate in the absence of the inhibitor, K m is the Michaelis constant for inosine, [S] and [I] are inosine and inhibitor concentrations, respectively, and Ki is the inhibition constant.

For experiment [3], the system named is L. (L.) infantum chagasi promastigotes. Briefly: Promastigote multiplication in chemically defined RPMI medium. The experiment is classed as cell-based, Leishmania (L.) infantum chagasi. The method, then:
Stock solutions (20 mM) of immucillins IA […] prepared using Milli-Q purified water. Log phase promastigotes of L. (L.) infantum chagasi and L. […] Promastigotes were recorded in a Neubauer chamber after 24, 48, 72 and 96 hours of incubation at 26°C. […] We also assayed the possibility of reversing the inhibitory effect of IA in RPMI medium by the addition of adenosine to the culture medium. The concentration of adenosine in Schneider s insect serum supplemented medium was assessed by HPLC using a C-18 reverse-phase column as described.

The test system is the same in experiment [4]. The experiment is described as follows: In vitro growth of promastigotes in FBS supplemented Schneider's insect medium. The following applies: Leishmania infantum. The experiment is classed as cell-based, Leishmania (L.) infantum chagasi. The text has this: The strain of Leishmania (L.) infantum chagasi MHOM/BR/1974/PP75 was obtained from the Leishmania Type Culture Collection (Fundacão Oswaldo Cruz, Rio de Janeiro, RJ, Brazil) and the strain of Leishmania (L.) amazonensis (MHOM/BR/1975/Josefa) was kindly given by Professor Rosâ[…] from Universidade Federal do Rio de Janeiro. Promastigotes were maintained by weekly transfers in screw-capped glass tubes containing Schneider's insect medium (Sigma Aldrich, MO, USA), pH 7.0, supplemented with 10% Fetal Bovine Serum (FBS) at 26°C. […] Log phase promastigotes of L. (L.) infantum chagasi and L. […] Promastigotes were recorded in a Neubauer chamber after 24, 48, 72 and 96 hours of incubation at 26°C. […] The concentration of adenosine in Schneider s insect serum supplemented medium was assessed by HPLC using a C-18 reverse-phase column as described.

Experiment [5] concerns L. (L.) amazonensis promastigotes. Described as above. Format: cell-based, Leishmania (L.) amazonensis. Particulars: Leishmania amazonensis. The text has this: The strain of Leishmania (L.) infantum chagasi MHOM/BR/1974/PP75 was obtained from the Leishmania Type Culture Collection (Fundacão Oswaldo Cruz, Rio de Janeiro, RJ, Brazil) and the strain of Leishmania (L.) amazonensis (MHOM/BR/1975/Josefa) was kindly given by Professor Rosâ[…] from Universidade Federal do Rio de Janeiro. Promastigotes were maintained by weekly transfers in screw-capped glass tubes containing Schneider's insect medium (Sigma Aldrich, MO, USA), pH 7.0, supplemented with 10% Fetal Bovine Serum (FBS) at 26°C. Stock solutions (20 mM) of immucillins IA […] prepared using Milli-Q purified water. Log phase promastigotes of L. (L.) infantum chagasi and L. […] Promastigotes were recorded in a Neubauer chamber after 24, 48, 72 and 96 hours of incubation at 26°C. […] We also assayed the possibility of reversing the inhibitory effect of IA in RPMI medium by the addition of adenosine to the culture medium. The concentration of adenosine in Schneider s insect serum supplemented medium was assessed by HPLC using a C-18 reverse-phase column as described.

A word on the Ki: it is the dissociation constant of the complex between target and ligand, obtained from inhibition or displacement. By inhibition is commonly meant how much of the control response was suppressed. One may read the IC50 as the concentration at which inhibition is half-maximal.

For `Nc1ncnc2c(C3N[C@H](CO)[C@@H](O)[C@H]3O)c[nH]c12` (stereo partly drawn) [IA], the “effect on cellular ultrastructure of promastigotes” value in experiment [1] is listed as “global alterations on their cellular morphology”. In experiment [2], the Ki amounted to 0.08 µM. The inhibition at 10 µM in experiment [3] (Leishmania infantum, 10 μM, 72 h, compared to RPMI with no addition) stood at 38%. In addition, in experiment [3] (Leishmania infantum, 50 μM, 72 h, compared to RPMI with no addition), the inhibition at 50 µM turned out to be 46%. Besides, the IC50 was 75 µM in experiment [3] (Leishmania infantum, RPMI medium lacking nucleosides or nucleobases, 72 h); 3.6 µM in experiment [4] (drugs added at 0, 24 and 48 h, after 48h, read-out: IC50 on promastigote growth, daily addition); below 0.05 µM in experiment [4] (drugs added at 0, 24 and 48 h, at 72 and 96 h, read-out: IC50 on promastigote growth, daily addition); 23.9 µM in experiment [4] (single addition at 0 h, evaluated after 48 hours, 26°C, read-out: IC50 (CI 95%) on L. (L.) infantum chagasi promastigotes in vitro growth); 48.7 µM in experiment [5] (single addition at 0 h, evaluated after 48 hours, 26°C, read-out: IC50 (CI 95%) on L. (L.) amazonensis promastigotes in vitro growth). The “reversal of growth inhibition by adenosine” value in experiment [3] (RPMI with 50 μM IA and 50-500 μM adenosine, 72h) is on record as “can be reversed by the presence of exogenous adenosine”. Besides, the inhibition at 500 µM is 78% in experiment [4] (500 μM, after 96 h of culture, read-out: percent inhibition on L. (L.) infantum chagasi promastigote growth) and 76% in experiment [5] (500 μM, after 96 h of culture, read-out: percent inhibition on L. (L.) amazonensis replication).
